Source: US20080050443A1, “Fast Release Composition Including Melt Granules of a Moisture Sensitive Drug and Process for Manufacturing Thereof” (priority 2004, published 2008)

Test: Moisture sensitivity of Compound I
Type: physicochemical
Excerpt: This monohydrochloride of formula (I) (hereinafter, “Compound I”) is described in scheme 2 of Villhauer et al., J Med Chem, Vol. 45, No. 12, pp. 2362-65 (2002), which is hereby incorporated by reference. Compound I is a moisture-sensitive therapeutic compound. At humidities above 75%, Compound I absorbs moisture and begins to deliquesce; moreover, Compound I undergoes both acidic and basic degradation with cyclic imidate (“CI”) being the major degradation product.

humidity at which Compound I absorbs moisture and begins to deliquesce: above 75%
SMILES: Cl.N#Cc1ccc(NCCNCC(=O)N2CCC[C@H]2C#N)nc1 [Compound I, [S]-1-[2-(5-cyano-2-pyridinylamino)ethylamino]acetyl-2-pyrolidine carbonitrile monohydrochloride]
